Source: patent publication US7138361B2, “Herbicidal heterocycles” (E. I. du Pont de Nemours and Company, priority 2000, dated 2006)

Experiments:
Assay type in all cases: in vivo
Nightshade = assay: Test C preemergence
Sunflower [1] = assay: Test C preemergence; settings: Rate 500 g/ha, scale 0 to 100
[2] = system: Surinam grass (Brachiaria decumbens); assay: Test C preemergence
Method in brief: (§1)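 Preemergence: seeds sown then treated. Postemergence: plants 2–18 cm, 1- to 4-leaf. Both with surfactant-containing solvent formulation; visual injury scored 0–100 after 12–14 d.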

[3] = system: bermudagrass (Cynodon dactylon); assay: Test C preemergence
Method in brief: as §1

[4] = system: cocklebur (Xanthium strumarium); assay: Test C preemergence
Method in brief: as §1

corn (Zea mays) = assay: Test C preemergence
Method in brief: as §1

[5] = system: crabgrass (Digitaria sanguinalis); assay: Test C preemergence
Method in brief: as §1

[6] = system: giant foxtail (Setaria faberii); assay: Test C preemergence
Method in brief: as §1

[7] = system: goosegrass (Eleusine indica); assay: Test C preemergence
Method in brief: as §1

[8] = system: johnsongrass (Sorghum halepense); assay: Test C preemergence
Method in brief: as §1

kochia (Kochia scoparia) = assay: Test C preemergence
Method in brief: as §1

[9] = system: lambsquarters (Chenopodium album); assay: Test C preemergence
Method in brief: as §1

[10] = system: morningglory (Ipomoea hederacea); assay: Test C preemergence
Method in brief: as §1

[11] = system: pigweed (Amaranthus retroflexus); assay: Test C preemergence
Method in brief: as §1

soybean (Glycine max) = assay: Test C preemergence
Method in brief: as §1

[12] = system: velvetleaf (Abutilon theophrasti); assay: Test C preemergence
Method in brief: as §1

[13] = system: woolly cupgrass (Eriochloa villosa); assay: Test C preemergence
Method in brief: as §1

[14] = system: yellow nutsedge (Cyperus esculentus); assay: Test C preemergence
Method in brief: as §1

[15] = system: barnyardgrass (Echinochloa crus-galli); assay: Test C flooded paddy test; settings: for Plant response rating, Barnyardgrass: flooded paddy test, scale 0 to 100 (0 no effect, 100 complete control)
Method in brief: (§2)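 Flooded paddy, 2-leaf stage at treatment. Readout: visual % control vs untreated, 0–100, at 12–14 d in greenhouse.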

[16] = system: duck salad (Heteranthera limosa); assay: Test C flooded paddy test; settings: for Ducksalad plant response rating: Flooded Paddy, scale 0 to 100, 0 no effect, 100 complete control; for Plant response rating, Ducksalad: flooded paddy test, scale 0 to 100 (0 no effect, 100 complete control)
Method in brief: as §2

[17] = system: smallflower flatsedge (Cyperus difformis); assay: Test C flooded paddy test; settings: for Flatsedge plant response rating: Flooded Paddy, scale 0 to 100, 0 no effect, 100 complete control; for Plant response rating, Flatsedge: flooded paddy test, scale 0 to 100 (0 no effect, 100 complete control)
Method in brief: as §2

Sunflower [18] = assay: Test C preemergence; settings: Rate 250 g/ha, visual evaluation after 12 to 14 days
[19] = Rate 62 g/ha, scale 0 to 100, 0 no effect, 100 complete control
[20] = Preemergence, Rate 500 g/ha, scale 0 to 100
[21] = preemergence, Rate 250 g/ha, visual evaluation after 12 to 14 days
[22] = preemergence, Rate 125 g/ha, scale 0 to 100, 0 no effect, 100 complete control

O=C1C(n2ccc(C3CCCCC3)n2)OCN1c1cccc(C(F)(F)F)c1 (centres unmarked) [Compound 51]
Plant response rating, Nightshade (Nightshade; [19]): 0 | Plant response rating, Nightshade (Nightshade; Rate 125 g/ha, scale 0 to 100, 0 no effect, 100 complete control): 0 | Plant response rating, Nightshade (Nightshade; Rate 500 g/ha, scale 0 to 100): 60 | Plant response rating, Sunflower (Sunflower [1]): 30 | Plant response rating, Surinam grass [2, 20]: 70 | Plant response rating, Surinam grass [2, 19]: 30 | Plant response rating (0 to 100), Surinam grass [2, 21]: 70 | Plant response rating, Surinam grass [2, 22]: 30 | Plant response rating, Bermudagrass [3, 20]: 100 | Plant response rating, Bermudagrass [3, 19]: 90 | Plant response rating (0 to 100 where 0 is no effect and 100 is complete control), Bermudagrass [3, 21]: 100 | Plant response rating, Bermudagrass [3, 22]: 100 | Plant response rating, Cocklebur [4, 20]: 0 | Plant response rating, Cocklebur [4, 19]: 0 | Plant response rating (0 to 100), Cocklebur [4, 21]: 0 | Plant response rating, Cocklebur [4, 22]: 0 | Plant response rating, Corn (corn (Zea mays); [20]): 0 | Plant response rating, Corn (corn (Zea mays); [19]): 0 | Plant response rating (0 to 100), Corn (corn (Zea mays); [21]): 0 | Plant response rating, Crabgrass [5, 20]: 100 | Plant response rating, Crabgrass [5, 19]: 70 | Plant response rating (0 to 100), Crabgrass [5, 21]: 100 | Plant response rating, Crabgrass [5, 22]: 100 | Plant response rating, Foxtail, Giant [6, 20]: 100 | Plant response rating, Foxtail, Giant [6, 19]: 70 | Plant response rating (0 to 100), Foxtail, Giant [6, 21]: 100 | Plant response rating, Foxtail, Giant [6, 22]: 0 | Plant response rating, Goosegrass [7, 20]: 100 | Plant response rating, Goosegrass [7, 19]: 80 | Plant response rating (0 to 100), Goosegrass [7, 21]: 100 | Plant response rating, Goosegrass [7, 22]: 90 | Plant response rating, Johnsongrass [8, 20]: 90 | Plant response rating, Johnsongrass [8, 19]: 20 | Plant response rating (0 to 100), Johnsongrass [8, 21]: 60 | Plant response rating, Johnsongrass [8, 22]: 20 | Plant response rating, Kochia (kochia (Kochia scoparia); [20]): 80 | Plant response rating, Kochia (kochia (Kochia scoparia); [19]): 40 | Plant response rating (0 to 100), Kochia (kochia (Kochia scoparia); [21]): 50 | Plant response rating, Kochia (kochia (Kochia scoparia); [22]): 50 | Plant response rating, Lambsquarters [9, 20]: 100 | Plant response rating, Lambsquarters [9, 19]: 60 | Plant response rating (0 to 100), Lambsquarters [9, 21]: 100 | Plant response rating, Lambsquarters [9, 22]: 100 | Plant response rating, Morningglory [10, 20]: 20 | Plant response rating, Morningglory [10, 22]: 0 | Plant response rating, Pigweed [11, 20]: 30 | Plant response rating (0 to 100), Pigweed [11, 21]: 100 | Plant response rating, Pigweed [11, 22]: 0 | Plant response rating, Soybean (soybean (Glycine max); [20]): 30 | Plant response rating (0 to 100), Soybean (soybean (Glycine max); [21]): 20 | Plant response rating, Soybean (soybean (Glycine max); [22]): 0 | Plant response rating, Velvetleaf [12, 20]: 30 | Plant response rating (0 to 100), Velvetleaf [12, 21]: 30 | Plant response rating, Velvetleaf [12, 22]: 0 | Plant response rating, Cupgrass, Woolly [13, 20]: 100 | Plant response rating, Cupgrass, Woolly [13, 19]: 50 | Plant response rating (0 to 100), Cupgrass, Woolly [13, 21]: 80 | Plant response rating, Cupgrass, Woolly [13, 22]: 50 | Plant response rating, Nutsedge [14, 20]: 30 | Plant response rating, Nutsedge [14, 19]: 20 | Plant response rating (0 to 100), Nutsedge [14, 21]: 30 | Plant response rating, Nutsedge [14, 22]: 20 | Barnyardgrass plant response rating ([15]; Flooded Paddy, Rate 250 g/ha, scale 0 to 100, 0 no effect, 100 complete control): 90 | Plant response rating, Barnyardgrass ([15]; Rate 62 g/ha): 20 | Plant response rating, Barnyardgrass ([15]; Rate 125 g/ha): 20 | Ducksalad plant response rating ([16]; Rate 250 g/ha): 40 | Ducksalad plant response rating ([16]; Rate 500 g/ha): 70 | Plant response rating, Ducksalad ([16]; Rate 62 g/ha): 0 | Plant response rating, Ducksalad ([16]; Rate 125 g/ha): 0 | Flatsedge plant response rating ([17]; Rate 250 g/ha): 100 | Flatsedge plant response rating ([17]; Rate 500 g/ha): 100 | Plant response rating, Flatsedge ([17]; Rate 62 g/ha): 40 | Plant response rating, Flatsedge ([17]; Rate 125 g/ha): 90 | Plant response rating (0 to 100), Sunflower (Sunflower [18]): 30
